In patent publication US5391540A, “Substituted pyridine compounds” (Rohm and Haas Company, priority 1993, dated 1995):

Columns and labels:
Assay in all cases: Pre-emergent herbicidal activity (Table A)
Assay type in all cases: in vivo
Rhizome Johnsongrass = conditions: Sorghum halepense, pre-emergence, Rhjg, 11.2 kg/ha, 10-14 days, read-out: herbicidal rating (% inhibition)
How it was run: (§1)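 Percent inhibition per species, scored on a rating scale, after pre-emergent soil incorporation: test compound in acetone or water carrier mixed into cover soil, layered over seeded topsoil or vegetative propagules.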

Common Lambsquarters = conditions: Chenopodium album, pre-emergence, Colq, 11.2 kg/ha, 10-14 days, read-out: herbicidal rating (% inhibition)
How it was run: as §1

Yellow Nutsedge = conditions: Cyperus, pre-emergence, Yens, 11.2 kg/ha, 10-14 days, read-out: herbicidal rating (% inhibition)
How it was run: as §1

Downy Brome = conditions: Bromus tectorum, pre-emergence, Dobr, 11.2 kg/ha, 10-14 days, read-out: herbicidal rating (% inhibition)
How it was run: as §1

Canada thistle = conditions: Cirsium arvense, pre-emergence, Cath, 11.2 kg/ha, 10-14 days, read-out: herbicidal rating (% inhibition)
How it was run: as §1

Cocklebur = conditions: Xanthium strumarium, pre-emergence, Cobu, 11.2 kg/ha, 10-14 days, read-out: herbicidal rating (% inhibition)
How it was run: as §1

Morningglory = conditions: Ipomoea, pre-emergence, Mogl, 11.2 kg/ha, 10-14 days, read-out: herbicidal rating (% inhibition)
How it was run: as §1

Barnyardgrass = conditions: Echinochloa crus-galli, pre-emergence, Bygr, 11.2 kg/ha, 10-14 days, read-out: herbicidal rating (% inhibition)
How it was run: as §1

Quackgrass = conditions: pre-emergence, Rhqg, 11.2 kg/ha, 10-14 days, read-out: herbicidal rating (% inhibition)
How it was run: as §1

Pennsylvania Smartweed = conditions: pre-emergence, Pesw, 11.2 kg/ha, 10-14 days, read-out: herbicidal rating (% inhibition)
How it was run: as §1

Velvetleaf = conditions: Abutilon theophrasti, pre-emergence, Vele, 11.2 kg/ha, 10-14 days, read-out: herbicidal rating (% inhibition)
How it was run: as §1

| SMILES | inhibition at 11200 g/ha (Rhizome Johnsongrass) [%] | inhibition at 11200 g/ha (Common Lambsquarters) [%] | inhibition at 11200 g/ha (Yellow Nutsedge) [%] | inhibition at 11200 g/ha (Downy Brome) [%] | inhibition at 11200 g/ha (Canada thistle) [%] | inhibition at 11200 g/ha (Cocklebur) [%] | inhibition at 11200 g/ha (Morningglory) [%] | inhibition at 11200 g/ha (Barnyardgrass) [%] | inhibition at 11200 g/ha (Quackgrass) [%] | inhibition at 11200 g/ha (Pennsylvania Smartweed) [%] | inhibition at 11200 g/ha (Velvetleaf) [%] |
| --- | --- | --- | --- | --- | --- | --- | --- | --- | --- | --- | --- |
| COC(=O)c1c(C(F)(F)F)nc(OC)c(N=CN(C)C)c1CC(C)C [Compound 57, 3-pyridinecarboxylic acid, 5[[(dimethylamino)methylene]amino]-6-methoxy-4-(2-methylpropyl)-2-(trifluoromethyl)-, methyl ester] | 75 to 100 | 75 to 100 | 0 to 24 | 75 to 100 | 0 to 24 | 0 to 24 | 50 to 74 | 75 to 100 | 75 to 100 | 0 to 24 | 50 to 74 |
| COC(=O)c1c(C(F)(F)F)nc(OC)c(N=CSC)c1CC(C)C [Compound 58, 3-pyridinecarboxylic acid, 6-methoxy-4-(2-methylpropyl)-5-[(methylthiomethylene)]amino-2-(trifluoromethyl)-, methyl ester] | 0 to 24 | 75 to 100 | 0 to 24 | 75 to 100 | 0 to 24 | 0 to 24 | 25 to 49 | 75 to 100 | 75 to 100 | 75 to 100 | 25 to 49 |
| COc1nc(C(F)(F)F)c(C(=O)n2cccn2)c(C2CCC2)c1C(=O)n1cccn1 [Compound 59, 4-cyclobuty1-2-methoxy-3,5-bis(1H-pyrazo1-1-ylcarbonyl)-6-(trifluoromethyl)-pyridine] | 0 to 24 | 75 to 100 | 0 to 24 | 75 to 100 | 0 to 24 | 0 to 24 | 75 to 100 | 75 to 100 | 75 to 100 | 75 to 100 | 50 to 74 |
| COC(=O)c1c(OC)nc(C(F)(F)F)c(C(=O)n2cncn2)c1CC(C)C [Compound 60, 3-pyridinecarboxylic acid, 2-methoxy-4-(2-methylpropyl)-5-(1H-1,2,4-triazo1-1-ylcarbonyl)-6-(trifluoromethyl)-, methyl ester] | 75 to 100 | 75 to 100 | 0 to 24 | 75 to 100 | 75 to 100 | 25 to 49 | 75 to 100 | 75 to 100 | 75 to 100 | 75 to 100 | 75 to 100 |
| CCOC=Nc1c(C(F)(F)F)nc(OC)c(C(=O)OC)c1CC(C)C [Compound 61, 3-pyridinecarboxylic acid, 5-[(ethoxymethylene)amino]-2-methoxy-4-(2-methylpropyl)-6-(trifluoromethyl)-, methyl ester] | 75 to 100 | 75 to 100 | 0 to 24 | 75 to 100 | 50 to 74 | 25 to 49 | 75 to 100 | 75 to 100 | 75 to 100 | 75 to 100 | 75 to 100 |
| COC(=O)c1c(OC)nc(C(F)(F)F)c(N=CN(C)C)c1CC(C)C [Compound 62, 3-pyridinecarboxylic acid, 5-[[(dimethylamino)methylene]amino]-2-methoxy-4-(2-methylpropyl)-6-(trifluoromethyl)-, methyl ester] | 50 to 74 | 75 to 100 | 25 to 49 | 75 to 100 | 75 to 100 | 25 to 49 | 75 to 100 | 75 to 100 | 75 to 100 | 75 to 100 | 75 to 100 |
| COC(=O)c1c(OC)nc(C(F)(F)F)c(C(=O)OC)c1C(C)C [Compound 63, 3,5-pyridinedicarboxylic acid, 2-methoxy-4-(1-methylethyl)-6-(trifluoromethyl)-, dimethyl ester] | 75 to 100 | 75 to 100 | 75 to 100 | 75 to 100 | 50 to 74 | 0 to 24 | 75 to 100 | 75 to 100 | 75 to 100 | 75 to 100 | 75 to 100 |
| COC(=O)c1c(OC)nc(C(F)(F)F)c(C2=NCC(C)S2)c1CC(C)C (centres unmarked) [Compound 64, 3-pyridinecarboxylic acid, 5-(4,5-dihydro-5-methy1-2-thiazolyl)-2-methoxy-4-(2-methylpropyl)-6-(trifluoromethyl)-, methyl ester] | 0 to 24 | 75 to 100 | 0 to 24 | 75 to 100 | 75 to 100 | 75 to 100 | 75 to 100 | 75 to 100 | 50 to 74 | 75 to 100 | 75 to 100 |
| COc1nc(C(F)(F)F)c(C(=O)SC)c(C2CCC2)c1C(=O)SC [Compound 65, 3,5 pyridinedicarbothioic acid, 4-cyclobuty1-2-methoxy-6-(trifluoromethyl)-, S,S-dimethyl ester] | 0 to 24 | 75 to 100 | 25 to 49 | 75 to 100 | 75 to 100 | 25 to 49 | 75 to 100 | 75 to 100 | 50 to 74 | 75 to 100 | 75 to 100 |
| COC(=O)c1c(OC)nc(C(F)(F)F)c(C(=O)N2CCCC2)c1CC(C)C [Compound 66, 3-pyridinecarboxylic acid, 2-methoxy-4-(2-methylpropyl)-5-(1-pyrrolidinylcarbonyl)-6-(trifluoromethyl)-, methyl ester] | 0 to 24 | 75 to 100 | 0 to 24 | 75 to 100 | 75 to 100 | 0 to 24 | 50 to 74 | 75 to 100 | 75 to 100 | 25 to 49 | 25 to 49 |
| COC(=O)c1c(OC)nc(C(F)(F)F)c(C(=O)N2CCCCC2)c1CC(C)C [Compound 67, 3-pyridinecarboxylic acid, 2-methoxy-4-(2-methylpropyl)-5-(1-piperidinylcarbonyl)-6-(trifluoromethyl)-, methyl ester] | 0 to 24 | 75 to 100 | 0 to 24 | 75 to 100 | 75 to 100 | 0 to 24 | 75 to 100 | 75 to 100 | 75 to 100 | 75 to 100 | 50 to 74 |
| COC(=O)c1c(OC)nc(C(F)(F)F)c(C(=O)N2CCC2)c1CC(C)C [Compound 68, 3-pyridinecarboxylic acid, 5-(1-azetidinylcarbonyl)-2-methoxy-4-(2-methylpropyl)-6-(trifluoromethyl)-, methyl ester] | 25 to 49 | 75 to 100 | 0 to 24 | 75 to 100 | 25 to 49 | 0 to 24 | 50 to 74 | 75 to 100 | 75 to 100 | 25 to 49 | 0 to 24 |
| COC(=O)c1c(OC)nc(C(F)(F)F)c(C(=O)N2CCOCC2)c1CC(C)C [Compound 69, 3-pyridinecarboxylic acid, 2-methoxy-4-(2-methylpropyl)-5-(4-morpholinyl)carbony1-6-(trifluoromethyl)-, methyl ester] | 50 to 74 | 75 to 100 | 0 to 24 | 25 to 49 | 50 to 74 | 0 to 24 | 25 to 49 | 75 to 100 | 75 to 100 | 0 to 24 | 0 to 24 |
